Measured values taken from patent US20100311835A1, “CIS-9, TRANS-11 ISOMER OF CONJUGATED LINOLEIC ACID (CLA) FOR TREATING INFLAMMATORY DISEASES” (COGNIS IP MANAGEMENT GMBH, priority 2003, published 2010).

What was measured:
BEAS-2B = assay: Proliferation of LPS/serum-stimulated cells (cell numbers after 24 h); assay type: cell-based, human
Method: (§1) • Cell cultures. The transformed human bronchial epithelial cell line BEAS-2B (Clonetics Cell Systems, St. Katharinen, Germany) and the normal human bronchial epithelial cell line in primary culture (American Type Culture Collection, Manassas, Va., USA) were cultured in T-25-tissue flasks in bronchial/tracheal epithelial cell basal medium (BEBM) supplemented with a variety of growth factors including bovine pituitary extract (0,052 mg/mL), human recombinant epidermal growth factor (0.5 ng/mL), hydrocortisone (0.5 μg/mL), epinephrine (0.5 μg/mL), transferrin (0.01 mg/mL), insulin (5 μg/mL), retinoic acid (0.1 ng/mL), triiodthyronine (6.5 ng/mL), gentamicin (0.05 mg/mL) and amphotericin (0.05 μg/mL), all purchased from Clonetics Cell Systems (St. Katharinen, Germany). Cultures were held at 37° C. in a humidified atmosphere of 5% CO2 in air and the medium was changed every other day. • Stimulation of cells and fatty acid supplementation. Cis-9,trans-11-CLA and linoleic acid (LA) were obtained from Matreya Inc. (Pleasant Gap, Pa., USA). Purified fatty acids in oil form were dissolved in 96% ethanol to give a 20-mM stock solution, which was further diluted in growth medium to produce the range of test concentrations (20 μg/mL, 10 μg/mL and 5 μg/mL CLA and LA, respectively). At confluence, the cells were detached by exposure to trypsin/EDTA solution (0.05/0.02% in Ca^2+- and Mg^2+-free phosphate buffered saline; Biochrom AG, Krefeld, Germany) and reseeded in 12-well plates at a concentration of 1×10^5 cells/well and cultured for 24 h to allow the cells to attach to the substratum. The medium was then replaced and a final volume of 1 ml of each CLA- and LA-test concentrations, supplemented with 5 μg LPS/mL (lipopolysaccharide, E-coli serotype 026:B6, Sigma, Taufkirchen, Germany) and 10% serum from allergic donors, was added to the wells. A similar volume of fatty acid-free medium containing the indicated stimuli and 0.4% ethanol, corresponding to the max. volume in experimental wells, was used in stimulated control. 1 ml of fresh growth medium containing 0.4% ethanol without any fatty acid and stimuli underwent the same measures of preparation and represented the unstimulated control. After incubation for 24 h at 37° C., supernatants were harvested, separated from non-adherent cells and cell debris by centrifugation (1300 rpm, 10 min), and kept at −20° C. until cytokine analysis. Cells were trypsinised to determine cell numbers and allow quantification of differences in cell proliferation in response to different treatments. • Measurement of IL-6 and IL-8 in cell culture supernatants. IL-6 and IL-8 production of epithelial cells were estimated in duplicate by enzyme-linked immunosorbent assay using commercially available ELISA kits (Pharmingen, Heidelberg, Germany) according to the manufacturer's guidelines. Standard curves and blank buffer were included in duplicate in each assay. When necessary, samples were diluted to fit into the assay range. Specific interleukin concentrations were expressed as picograms of interleukin per millilitre. • Estimation of cytokine gene expression with RT-PCR. Cultures of BEAS-2B and NHBE at an initial density of 1×10^5 cells/well were stimulated as described above and treated with cis-9,trans-11-CLA or LA in the highest concentration (20 μg/mL) for 4 h or 12 h before total cellular RNA was isolated for cytokine gene expression analysis by reverse transcriptase-polymerase chain reaction. Total RNA preparations were performed by DNase treatment according to the standard protocol of the High-Pure™ RNA isolation kit from Roche (Mannheim, Germany). For RT-PCR analysis, first strand cDNA was synthesized from extracted RNA using random primers, reagents and conditions supplied in the ProSTAR™ First-Strand RT-PCR kit from Stratagene (Amsterdam, Netherlands). One-tenth of the synthesized cDNA was subjected to PCRamplification in a total volume of 25 μl. […]

NHBE = assay: as above; assay type: cell-based, human
Method: as §1

IL-6 [1] = assay: IL-6 in cell culture supernatants by ELISA, stimulated BEAS-2B; assay type: cell-based, human
Method: as §1

IL-8 [2] = assay: IL-8 in cell culture supernatants by ELISA, stimulated BEAS-2B; assay type: cell-based, human
Method: as §1

IL-6 [3] = assay: IL-6 in cell culture supernatants by ELISA, stimulated NHBE; assay type: cell-based, human; conditions: 24 h
Method: as §1

IL-8 [4] = assay: IL-8 in cell culture supernatants by ELISA, stimulated NHBE; assay type: cell-based, human; conditions: 24 h
Method: as §1

IL-6 mRNA = assay: Quantification of IL-6 mRNA by RT-PCR in stimulated bronchial epithelial cells; assay type: cell-based, human; conditions: 20 μg/mL, 4 h and 12 h, LPS/serum-stimulated, RT-PCR with cyclophilin as internal standard
Method: (§2) • Cell cultures. The transformed human bronchial epithelial cell line BEAS-2B (Clonetics Cell Systems, St. Katharinen, Germany) and the normal human bronchial epithelial cell line in primary culture (American Type Culture Collection, Manassas, Va., USA) were cultured in T-25-tissue flasks in bronchial/tracheal epithelial cell basal medium (BEBM) supplemented with a variety of growth factors including bovine pituitary extract (0,052 mg/mL), human recombinant epidermal growth factor (0.5 ng/mL), hydrocortisone (0.5 μg/mL), epinephrine (0.5 μg/mL), transferrin (0.01 mg/mL), insulin (5 μg/mL), retinoic acid (0.1 ng/mL), triiodthyronine (6.5 ng/mL), gentamicin (0.05 mg/mL) and amphotericin (0.05 μg/mL), all purchased from Clonetics Cell Systems (St. Katharinen, Germany). Cultures were held at 37° C. in a humidified atmosphere of 5% CO2 in air and the medium was changed every other day. • Stimulation of cells and fatty acid supplementation. […] Cells were trypsinised to determine cell numbers and allow quantification of differences in cell proliferation in response to different treatments. • Measurement of IL-6 and IL-8 in cell culture supernatants. […] Specific interleukin concentrations were expressed as picograms of interleukin per millilitre. • Estimation of cytokine gene expression with RT-PCR. […]

IL-8 mRNA = assay: Quantification of IL-8 mRNA by RT-PCR in stimulated bronchial epithelial cells; assay type: cell-based, human; conditions: 20 μg/mL, 4 h and 12 h, LPS/serum-stimulated, RT-PCR with cyclophilin as internal standard
Method: as §2

[5] = tested on: eosinophilic granuloctyes; assay: Apoptosis of eosinophilic granulocytes in vitro; assay type: cell-based
[6] = BEAS-2B, 5 μg/mL, 24 h, LPS/serum-stimulated
[7] = BEAS-2B, 10 μg/mL, 24 h, LPS/serum-stimulated
[8] = BEAS-2B, 5 μg/mL, 24 h, vs stimulated control+
[9] = BEAS-2B, 10 μg/mL, 24 h, vs stimulated control+
[10] = BEAS-2B, 20 μg/mL, 24 h, vs stimulated control+
[11] = in vitro, compared to a placebo
[12] = 5 μg/mL, vs stimulated control+
[13] = 10 μg/mL, vs stimulated control+
[14] = 20 μg/mL, vs stimulated control+

SMILES	% inhibition of proliferation (BEAS-2B; [6])	% inhibition of proliferation (BEAS-2B; [7])	% inhibition of proliferation (NHBE; 5 μg/mL, LPS/serum-stimulated)	% inhibition of proliferation (NHBE; 10 μg/mL, LPS/serum-stimulated)	pg IL (cytokine release/100.000 cells) (IL-6 [1]; BEAS-2B, 5 μg/mL, 24 h)	pg IL (cytokine release/100.000 cells) (IL-6 [1]; BEAS-2B, 10 μg/mL, 24 h)	pg IL (cytokine release/100.000 cells) (IL-6 [1]; BEAS-2B, 20 μg/mL, 24 h)	pg IL (cytokine release/100.000 cells) (IL-8 [2]; BEAS-2B, 5 μg/mL, 24 h)	pg IL (cytokine release/100.000 cells) (IL-8 [2]; BEAS-2B, 10 μg/mL, 24 h)	pg IL (cytokine release/100.000 cells) (IL-8 [2]; BEAS-2B, 20 μg/mL, 24 h)	pg IL (cytokine release/100.000 cells) (IL-6 [3]; 5 μg/mL)	pg IL (cytokine release/100.000 cells) (IL-6 [3]; 10 μg/mL)	pg IL (cytokine release/100.000 cells) (IL-6 [3]; 20 μg/mL)	pg IL (cytokine release/100.000 cells) (IL-8 [4]; 5 μg/mL)	pg IL (cytokine release/100.000 cells) (IL-8 [4]; 10 μg/mL)	pg IL (cytokine release/100.000 cells) (IL-8 [4]; 20 μg/mL)	IL-6 mRNA accumulation compared with stimulated control (c+) (IL-6 mRNA)	IL-8 mRNA accumulation compared with stimulated control (c+) (IL-8 mRNA)	further results
CCCCCC/C=C/C=C\CCCCCCCC(=O)O (single isomer, unassigned) [CLA, cis-9,trans-11 isomer of conjugated linoleic acid]	7.9±5.1%	19.3±5.0%	5.3 ± 3.7%	15.4±3.6%	983 ± 175 pg/100.000 cells	841 ± 184 pg/100.000 cells	792 ± 152 pg/100.000 cells	1774 ± 154 pg/100.000 cells	1667 ± 160 pg/100.000 cells	1458 ± 136 pg/100.000 cells	2049 ± 262 pg/100.000 cells	2062 ± 707 pg/100.000 cells	1731 ± 387 pg/100.000 cells	6212 ± 513 pg/100.000 cells	5659 ± 812 pg/100.000 cells	6793 ± 545 pg/100.000 cells	diminished	diminished	% inhibition of proliferation (BEAS-2B; BEAS-2B, 20 μg/mL, 24 h, 5 μg LPS/mL + 10% serum from allergic donors): 32.7±5.0%; inhibition of cell proliferation of bronchial epithelial cells (summary statement) (BEAS-2B; in vitro, epithelial cells, mainly bronchial epithelial cells): up to 30%; % inhibition of proliferation (NHBE; 20 μg/mL, LPS/serum-stimulated): 17.4±2.8%; % inhibition of IL-6-secretion (IL-6 [1]; [8]): 59.9±7.1%; % inhibition of IL-6-secretion (IL-6 [1]; [9]): 69.7 ± 7.6%; % inhibition of IL-6-secretion (IL-6 [1]; [10]): 76.4±4.4%; reduced expression of IL-6 (summary statement) (IL-6 [1]; [11]): about 70%; % inhibition of IL-8-secretion (IL-8 [2]; [8]): 25.6±3.6%; % inhibition of IL-8-secretion (IL-8 [2]; [9]): 38.8 ± 5.2%; % inhibition of IL-8-secretion (IL-8 [2]; [10]): 55.2±5.2%; reduced expression of IL-8 (summary statement) (IL-8 [2]; [11]): about 50%; % inhibition of IL-6-secretion (IL-6 [3]; [12]): 56.9±4.9%; % inhibition of IL-6-secretion (IL-6 [3]; [13]): 62.3 ± 10.2%; % inhibition of IL-6-secretion (IL-6 [3]; [14]): 68.6±5.3%; % inhibition of IL-8-secretion (IL-8 [4]; [12]): 33.3 ± 8.1%; % inhibition of IL-8-secretion (IL-8 [4]; [13]): 46.0±8.1%; % inhibition of IL-8-secretion (IL-8 [4]; [14]): 35.9 ± 11.4%; apoptosis of eosinophilic granulocytes [5]: support of apoptosis
CCCCC/C=C\C/C=C\CCCCCCCC(=O)O [LA, cis-9,cis-12-octadecadienoic acid, reference compound]	no effect	no effect	no effect	no effect	1440 ± 78 pg/100.000 cells	1220 ± 120 pg/100.000 cells	1181 ± 256 pg/100.000 cells	1483 ± 209 pg/100.000 cells	1341 ± 110 pg/100.000 cells	1533 ± 121 pg/100.000 cells	3052 ± 292 pg/100.000 cells	2906 ± 530 pg/100.000 cells	2007 ± 924 pg/100.000 cells	6820 ± 543 pg/100.000 cells	6252 ± 462 pg/100.000 cells	5420 ± 1032 pg/100.000 cells	no effect	no effect	effect on proliferation at lower concentrations (BEAS-2B; BEAS-2B, concentrations below 20 μg/mL, 24 h): caused cell growth; inhibition at 20 µg/mL (BEAS-2B; Homo sapiens, BEAS-2B, 20 μg/mL, 24 h, 5 μg LPS/mL + 10% serum from allergic donors): 4.7 ± 6.9%; inhibition at 20 µg/mL (NHBE; Homo sapiens, 20 μg/mL, LPS/serum-stimulated): 8.4 ± 2.1%; effect on proliferation at lower concentrations (NHBE; concentrations below 20 μg/mL): caused cell growth; inhibition at 5 µg/mL (IL-6 [1]; Homo sapiens, BEAS-2B, 5 μg/mL, 24 h, vs stimulated control+, read-out: % inhibition of IL-6-secretion): 23.1 ± 8.9%; inhibition at 10 µg/mL (IL-6 [1]; Homo sapiens, BEAS-2B, 10 μg/mL, 24 h, vs stimulated control+, read-out: % inhibition of IL-6-secretion): 38.4 ± 6.6%; inhibition at 20 µg/mL (IL-6 [1]; Homo sapiens, BEAS-2B, 20 μg/mL, 24 h, vs stimulated control+, read-out: % inhibition of IL-6-secretion): 50.2 ± 14.1%; inhibition at 5 µg/mL (IL-8 [2]; Homo sapiens, BEAS-2B, 5 μg/mL, 24 h, vs stimulated control+, read-out: % inhibition of IL-8-secretion): 19.3 ± 8.7%; inhibition at 10 µg/mL (IL-8 [2]; Homo sapiens, BEAS-2B, 10 μg/mL, 24 h, vs stimulated control+, read-out: % inhibition of IL-8-secretion): 30.6 ± 3.6%; inhibition at 20 µg/mL (IL-8 [2]; Homo sapiens, BEAS-2B, 20 μg/mL, 24 h, vs stimulated control+, read-out: % inhibition of IL-8-secretion): 33.5 ± 5%; inhibition at 5 µg/mL (IL-6 [3]; Homo sapiens, 5 μg/mL, vs stimulated control+, read-out: % inhibition of IL-6-secretion): 32.1 ± 5.6%; inhibition at 10 µg/mL (IL-6 [3]; Homo sapiens, 10 μg/mL, vs stimulated control+, read-out: % inhibition of IL-6-secretion): 35 ± 8.6%; inhibition at 20 µg/mL (IL-6 [3]; Homo sapiens, 20 μg/mL, vs stimulated control+, read-out: % inhibition of IL-6-secretion): 60 ± 16.3%; inhibition at 5 µg/mL (IL-8 [4]; Homo sapiens, 5 μg/mL, vs stimulated control+, read-out: % inhibition of IL-8-secretion): 22.8 ± 5.2%; inhibition at 10 µg/mL (IL-8 [4]; Homo sapiens, 10 μg/mL, vs stimulated control+, read-out: % inhibition of IL-8-secretion): 27.8 ± 10.8%; inhibition at 20 µg/mL (IL-8 [4]; Homo sapiens, 20 μg/mL, vs stimulated control+, read-out: % inhibition of IL-8-secretion): 43.3 ± 14.3%
